In patent US8637558B2 (Industry-Academic Cooperation Foundation, Chosun University, priority 2008, dated 2014):
pIC50: −log10 of the molar value.

The compounds below were run against 15-PGDH (Homo sapiens (Human), UniProt P15428) (assay: Assay for the activities of 15-PGDH inhibitors (formation of NADH at 340 nm)). Settings: purified 15-PGDH enzyme, 21 μM PGE2, 0.25 mM NAD+, pH 7.5; concentration inhibiting 50% of 15-PGDH activity.
15-PGDH, sequence (P15428 whole entry): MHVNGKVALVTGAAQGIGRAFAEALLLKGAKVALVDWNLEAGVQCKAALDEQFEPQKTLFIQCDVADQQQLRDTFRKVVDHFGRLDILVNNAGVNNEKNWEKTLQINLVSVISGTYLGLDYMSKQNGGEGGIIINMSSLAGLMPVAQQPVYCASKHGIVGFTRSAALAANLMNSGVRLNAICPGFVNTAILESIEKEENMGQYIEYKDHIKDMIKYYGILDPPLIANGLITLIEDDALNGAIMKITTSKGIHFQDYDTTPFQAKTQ
Format: biochemical
Method: <1-1> Expression and Purification of 15-PGDH
A 15-PGDH cDNA plasmid containing BamHI and EcoRI sites of the pGES-2T expression vector was used to transform Escherichia coli BL-21 lysS in accordance with the ordinarily used in the art. The transformed cells were grown in 500 mL LB medium containing 50 μg/mL ampicillin at 37° C. while being stirred at 220 rpm until the OD600 reached 0.6. Isopropyl β-D-thiogalactoside (1 mM) was added and the cells were allowed to grow for 12 hours at 25° C. Then, the pellets were harvested by centrifugation at 4000×g for 30 minutes at 4° C. The cell pallets were resuspended in 20 mL cell lysis buffer (1×PBS buffer (pH 7.4) containing 1 mM EDTA and 0.1 mM DTT) and sonicated (14×10 s at 4° C.). The disrupted cells were centrifuged at 4000×g for 20 minutes at 4° C. The supernatant was loaded slowly on a glutathione-sepharose 4B column, which was equilibrated at 4° C. with a cell lysis buffer (1×PBS buffer (pH 7.4) containing 1 mM EDTA and 0.1 mM DTT). The column was washed with the lysis buffer until OD280 reached below 0.005. Then, 15-PGDH was eluted from the glutathione-sepharose 4B column at room temperature for 5 minutes by using the elution buffer (50 mM Tris-HCl (pH 8.0) containing 10 mM reduced glutathione, 1 mM EDTA and 0.1 mM DTT). The concentration and the purity of the purified enzyme were determined by SDS-PAGE.
<1-2> Assay for the Activities of 15-PGDH Inhibitors
The absorbance of the reaction mixture was recorded at 340 nm so that the activities of the derivatives according to the present invention as 15-PGDH inhibitors were determined from a standard curve prepared from the absorbance of various concentrations of NADH at 340 nm.
A pIC50 of 5.55 was found for `O=C1NC(=O)/C(=C/c2ccc([N+](=O)[O-])c(OCCC3CCCCC3)c2)S1` [Derivative 79, 5-(3-(2-cyclohexylethoxy)-4-nitrobenzylidene)thiazolidine-2,4-dione] in this work. A pIC50 of 5.45 was found for `COc1cc(OCCC2CCCCC2)ccc1/C=C1\SC(=O)NC1=O` [Derivative 60, 5-(4-(2-cyclohexylethoxy)-2-methoxybenzylidene)thiazolidine-2,4-dione] in this work. A pIC50 of 5.58 was found for `O=C1NC(=O)/C(=C/c2ccc(OCCNC3CCCCC3)cc2)S1` [Derivative 7, 5-(4-(2-(cyclohexylamino)ethoxy)benzylidene)thiazolidine-2,4-dione] in this work. A pIC50 of 5.24 was found for `CCOc1ccc(/C=C2\SC(=O)NC2=O)cc1` [Derivative 41, 5-(4-ethoxybenzylidene)thiazolidine-2,4-dione] in this work. A pIC50 of 7.70 was found for `O=C1NC(=O)/C(=C/c2ccc(OCCc3ccccc3)c(Cl)c2)S1` [Derivative 69, 5-(3-chloro-4-phenylethoxybenzylidene)thiazolidine-2,4-dione] in this work. A pIC50 of 7.50 was found for `CC1CCC(COc2ccc(/C=C3\SC(=O)NC3=O)cc2C(F)(F)F)CC1` (centres unmarked) [Derivative 65, 5-[4-((4-methylcyclohexyl)methoxy)-3-(trifluoromethyl)benzylidene]thiazolidine-2,4-dione] in this work. A pIC50 of 6.80 was found for `O=C1NC(=O)C(Cc2ccc(OCCC3CCCCC3)cc2Cl)S1` (centres unmarked) [Derivative 127, 5-(2-chloro-4-(2-cyclohexylethoxy)benzyl)thiazolidine-2,4-dione] in this work. A pIC50 of 7.23 was found for `O=C1NC(=O)/C(=C/c2cccc(OCCCC3CCCCC3)c2Cl)S1` [Derivative 64, 5-(2-chloro-3-(cyclohexylpropoxy)benzylidene)thiazolidine-2,4-dione] in this work. A pIC50 of 6.69 was found for `O=C1NC(=O)C(Cc2ccc(OCC3CCCC3)cc2)S1` (centres unmarked) [Derivative 123, 5-(4-(cyclopentylmethoxy)benzyl)thiazolidine-2,4-dione] in this work. A pIC50 of 6.29 was found for `O=C1NC(=O)/C(=C/c2ccc(OCCN3CCOCC3)cc2)S1` [Derivative 2, 5-(4-(2-morpholinoethoxy)benzylidene)thiazolidine-2,4-dione] in this work. A pIC50 of 6.76 was found for `O=C1NC(=O)C(Cc2ccc(OCCC3CCCCC3)c(Cl)c2)S1` (centres unmarked) [Derivative 120, 5-(3-chloro-4-(2-cyclohexylethoxy)benzyl)thiazolidine-2,4-dione] in this work. A pIC50 of 6.11 was found for `O=C1NC(=O)C(Cc2ccc(OCCC3CCCC3)cc2)S1` (centres unmarked) [Derivative 130, 5-(4-(2-cyclopentylethoxy)benzyl)thiazolidine-2,4-dione] in this work. A pIC50 of 8.14 was found for `O=C1NC(=O)/C(=C/c2ccc(OCCC3CCCCC3)c(Cl)c2)S1` [Derivative 11, 5-(3-chloro-4-(2-cyclohexylethoxy)benzylidene)thiazolidine-2,4-dione] in this work. A pIC50 of 5.28 was found for `O=C1NC(=O)C(Cc2ccc(OCc3ccccc3)cc2)S1` (centres unmarked) [Derivative 116, 5-(4-(benzyloxy)benzyl)thiazolidine-2,4-dione] in this work. A pIC50 of 6.49 was found for `O=C1NC(=O)/C(=C/c2ccc(OCCCC3CCCCC3)c([N+](=O)[O-])c2)S1` [Derivative 12, 5-(4-(3-cyclohexylpropoxy)-3-nitrobenzylidene)thiazolidine-2,4-dione] in this work. A pIC50 of 6.66 was found for `O=C1NC(=O)/C(=C/c2ccc(OCC3CCCCC3)cc2)S1` [Derivative 42, 5-(4-(cyclohexylmethoxy)benzylidene)thiazolidine-2,4-dione] in this work. A pIC50 of 5.90 was found for `O=C1NC(=O)C(Cc2ccc(OCc3ccccc3)cc2)S1` (centres unmarked) [Derivative 124, 5-(4-(benzyloxy)benzyl)thiazolidine-2,4-dione] in this work. A pIC50 of 6.87 was found for `CC1CCC(COc2cccc(/C=C3\SC(=O)NC3=O)c2Cl)CC1` (centres unmarked) [Derivative 91, 5-{2-chloro-3-[(4-methylcyclohexyl)methoxy]benzylidene}-1,3-thiazolidine-2,4-dione] in this work. A pIC50 of 6.63 was found for `O=C1NC(=O)/C(=C/c2cccc(OCCOC3CCCCC3)c2Cl)S1` [Derivative 110, 5-{2-chloro-3-[2-(cyclohexyloxy)ethoxy]benzylidene}-1,3-thiazolidine-2,4-dione] in this work. A pIC50 of 8.18 was found for `O=C1NC(=O)/C(=C/c2ccc(OCCC3CCCCC3)c(Br)c2)S1` [Derivative 15, 5-(3-bromo-4-(2-cyclohexylethoxy)benzylidene)thiazolidine-2,4-dione] in this work. A pIC50 of 6.94 was found for `O=C1NC(=O)/C(=C/c2ccc(OCCC3CCCC3)cc2)S1` [Derivative 24, 5-(4-(2-cyclopentylethoxy)benzylidene)thiazolidine-2,4-dione] in this work. A pIC50 of 6.40 was found for `Cc1cc(CC2SC(=O)NC2=O)ccc1OCCC1CCCCC1` (centres unmarked) [Derivative 121, 5-(4-(2-cyclohexylethoxy)-3-methylbenzyl)thiazolidine-2,4-dione] in this work. A pIC50 of 5.66 was found for `O=C1NC(=O)C(Cc2ccc(OCCC3CCCC3)cc2)S1` (centres unmarked) [Derivative 118, 5-(4-(2-cyclopentylethoxy)benzyl)thiazolidine-2,4-dione] in this work. A pIC50 of 6.16 was found for `O=C1NC(=S)/C(=C/c2ccc(OCCC3CCCCC3)cc2)S1` [Derivative 13, 5-(4-(2-cyclohexylethoxy)benzylidene)-4-thioxothiazolidin-2-one] in this work. A pIC50 of 6.96 was found for `COc1ccc(/C=C2\SC(=O)NC2=O)c(Cl)c1OCCC1CCCCC1` [Derivative 80, 5-(2-chloro-3-(2-cyclohexylethoxy)-4-methoxybenzylidene) thiazolidine-2,4-dione] in this work. A pIC50 of 7.35 was found for `O=C1NC(=O)/C(=C/c2cccc(OCCCc3ccccc3)c2Cl)S1` [Derivative 75, 5-(2-chloro-3-(3-phenylpropoxy)benzylidene)thiazolidine-2,4-dione] in this work. A pIC50 of 6.59 was found for `CCOc1cc(/C=C2\SC(=O)NC2=O)ccc1OCCC1CCCCC1` [Derivative 59, 5-(4-(2-cyclohexylethoxy)-3-ethoxybenzylidene)thiazolidine-2,4-dione] in this work. A pIC50 of 5.93 was found for `Cc1ncsc1CCOc1ccc(/C=C2\SC(=O)NC2=O)cc1` [Derivative 19, 5-(4-(2-(4-methylthiazol-5-yl)ethoxy)benzylidene)thiazolidine-2,4-dione] in this work. A pIC50 of 6.63 was found for `O=C1NC(=O)/C(=C/c2ccc(OC3CCCCC3)cc2Cl)S1` [Derivative 95, 5-(2-chloro-4-(cyclohexyloxy)benzylidene)thiazolidine-2,4-dione] in this work. A pIC50 of 6.90 was found for `O=C1NC(=O)/C(=C/c2ccc(OCc3ccc(CCl)cc3)cc2)S1` [Derivative 36, 5-(4-(4-(chloromethyl)benzyloxy)benzylidene)thiazolidine-2,4-dione] in this work. For `O=C1NC(=O)/C(=C/c2ccc(Oc3ccccc3)cc2)S1` [Derivative 54, 5-(4-phenoxybenzylidene)-1,3-thiazolidine-2,4-dione], the pIC50 was < 4.70. A pIC50 of 6.85 was found for `O=C1NC(=O)C(Cc2ccc(OCCCC3CCCCC3)c(Cl)c2)S1` (centres unmarked) [Derivative 122, 5-(3-chloro-4-(cyclohexylpropoxy)benzyl)thiazolidine-2,4-dione] in this work. A pIC50 of 5.28 was found for `O=C1NC(=O)C(Cc2ccc(OCCN3CCS(=O)(=O)CC3)cc2)S1` (centres unmarked) [Derivative 119, 5-(4-(2-thiomorpholine-1,1-dioxideethoxy)benzyl)-2,4-thiazolidinedione] in this work. A pIC50 of 7.57 was found for `O=C1NC(=O)/C(=C/c2ccc(OCC3CCCCC3)c(Cl)c2)S1` [Derivative 31, 5-(3-chloro-4-(cyclohexylmethoxy)benzylidene)thiazolidine-2,4-dione] in this work. A pIC50 of 6.93 was found for `O=C1NC(=O)/C(=C/c2ccc(OCCc3ccccc3)cc2)S1` [Derivative 55, 5-[4-(2-phenylethoxy)benzylidene]-1,3-thiazolidine-2,4-dione] in this work.
